For 31 compounds, IC50 results are on record in patent US20030199692A1, “Propanoic acid derivatives that inhibit the binding of integrins to their receptors” (priority 1999, published 2003).

The target in this assay is T1, α4β1 integrin (Homo sapiens, UniProt P05556+P13612).
T1 construct: endogenous in cells; host or cells: Ramos cells
T1 sequence (P13612 34-1032): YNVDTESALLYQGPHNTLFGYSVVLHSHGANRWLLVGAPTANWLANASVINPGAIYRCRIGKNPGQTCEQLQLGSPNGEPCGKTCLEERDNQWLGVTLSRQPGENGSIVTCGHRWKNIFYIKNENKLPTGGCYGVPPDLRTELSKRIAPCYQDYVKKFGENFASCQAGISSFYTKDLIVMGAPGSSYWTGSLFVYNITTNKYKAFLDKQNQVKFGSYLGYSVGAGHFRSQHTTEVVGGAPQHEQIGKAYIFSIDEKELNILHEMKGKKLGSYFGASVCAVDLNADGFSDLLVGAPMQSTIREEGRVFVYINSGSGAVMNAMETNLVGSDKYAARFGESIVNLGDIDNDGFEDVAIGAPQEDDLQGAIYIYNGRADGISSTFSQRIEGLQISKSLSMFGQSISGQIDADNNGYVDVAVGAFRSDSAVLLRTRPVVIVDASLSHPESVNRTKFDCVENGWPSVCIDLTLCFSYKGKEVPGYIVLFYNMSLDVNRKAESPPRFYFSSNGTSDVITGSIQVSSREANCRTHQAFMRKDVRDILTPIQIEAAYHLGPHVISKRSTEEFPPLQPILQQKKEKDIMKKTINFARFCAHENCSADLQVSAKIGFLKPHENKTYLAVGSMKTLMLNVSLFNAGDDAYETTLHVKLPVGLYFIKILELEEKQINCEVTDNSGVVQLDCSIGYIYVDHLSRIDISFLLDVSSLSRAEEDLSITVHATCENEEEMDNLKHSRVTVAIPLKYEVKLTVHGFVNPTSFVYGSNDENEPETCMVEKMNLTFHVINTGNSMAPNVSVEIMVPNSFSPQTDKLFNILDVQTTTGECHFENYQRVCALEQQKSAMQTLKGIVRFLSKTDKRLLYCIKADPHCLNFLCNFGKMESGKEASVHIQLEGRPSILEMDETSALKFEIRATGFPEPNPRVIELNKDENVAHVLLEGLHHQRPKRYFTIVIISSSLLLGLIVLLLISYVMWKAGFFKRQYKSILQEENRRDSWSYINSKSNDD
T1 sequence (P05556 21-798): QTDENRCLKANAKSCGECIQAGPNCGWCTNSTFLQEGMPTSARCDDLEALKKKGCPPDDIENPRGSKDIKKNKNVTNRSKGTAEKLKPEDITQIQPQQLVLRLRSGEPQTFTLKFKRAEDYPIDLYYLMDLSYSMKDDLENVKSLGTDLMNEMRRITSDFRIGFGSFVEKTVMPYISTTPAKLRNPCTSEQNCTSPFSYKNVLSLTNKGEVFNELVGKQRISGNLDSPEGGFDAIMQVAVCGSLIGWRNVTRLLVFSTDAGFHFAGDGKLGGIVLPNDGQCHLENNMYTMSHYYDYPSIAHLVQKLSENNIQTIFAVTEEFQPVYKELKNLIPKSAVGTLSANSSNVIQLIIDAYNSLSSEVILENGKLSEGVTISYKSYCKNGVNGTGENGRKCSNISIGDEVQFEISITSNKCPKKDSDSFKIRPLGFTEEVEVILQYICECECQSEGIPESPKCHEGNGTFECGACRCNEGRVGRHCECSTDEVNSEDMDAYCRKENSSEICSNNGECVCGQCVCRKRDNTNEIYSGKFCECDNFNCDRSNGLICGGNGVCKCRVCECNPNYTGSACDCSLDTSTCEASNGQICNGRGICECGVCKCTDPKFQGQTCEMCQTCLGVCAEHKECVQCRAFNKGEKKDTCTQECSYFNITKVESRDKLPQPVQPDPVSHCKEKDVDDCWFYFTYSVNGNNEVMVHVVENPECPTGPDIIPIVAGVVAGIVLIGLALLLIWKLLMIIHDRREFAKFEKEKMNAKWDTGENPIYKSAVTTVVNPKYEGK
Put plainly: Inhibition of adhesion of calcein AM-labeled Ramos cells to CS1 (fibronectin) peptide-conjugated ovalbumin. In kind it is cell-based. To be noted: Table 4; Ramos cell adhesion to CS1-conjugated ovalbumin, 30 minutes at 37° C. The method in brief: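 Calcein AM-labeled Ramos cells (2.5×10^5/well) added with or without compound to plates coated with CS1 peptide-ovalbumin conjugate in TBS containing 1 mM each MgCl2, CaCl2, MnCl2; 30 min at 37° C. Adherent cells lysed and quantified fluorometrically after washes; IC50 as dose for 50% inhibition, or percent inhibition at 100 μM.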
On to `CCCCC(C(=O)N[C@@H](CC(=O)O)c1cccc(OC(C)C)c1)n1cc(C)cc(Cc2ccc(F)cc2Cl)c1=O` (stereo partly drawn) [(3S)-3-({2-[3-[(2-chloro-4-fluorophenyl)methyl]-5-methyl-2-oxo-1(2H)-pyridinyl]hexanoyl}amino)-3-{3-[(1-methylethyl)oxy]phenyl}propanoic acid], for which the IC50 was 17 nM.
With `CCCCC(C(=O)N[C@@H](CC(=O)O)c1cccc(OC(C)C)c1)n1cc(C)cc(Cc2c(Cl)cc(Cl)cc2OC)c1=O` (stereo partly drawn) [(3S)-3-({2-[3-{[2,4-dichloro-6-(methyloxy)phenyl]methyl}-5-methyl-2-oxo-1(2H)-pyridinyl]hexanoyl}amino)-3-{3-[(1-methylethyl)oxy]phenyl}propanoic acid] the figure was 275 nM; with `CCCCC(C(=O)N[C@@H](CC(=O)O)c1cccc(CC(C)C)c1)n1cc(C)cc(Cc2ccccc2)c1=O` (stereo partly drawn) [(3S)-3-({2-[5-methyl-2-oxo-3-(phenylmethyl)-1(2H)-pyridinyl]hexanoyl}amino)-3-[3-(2-methylpropyl)phenyl]propanoic acid], 10 nM; with `CCCCC(C(=O)N[C@@H](CC(=O)O)c1ccccc1)n1cc(C)cc(Cc2cccc3ccccc23)c1=O` (stereo partly drawn) [(3S)-3-({2-[5-methyl-3-(1-naphthalenylmethyl)-2-oxo-1(2H)-pyridinyl]hexanoyl}amino)-3-phenylpropanoic acid], 350 nM.
The value for `CCCCC(C(=O)N[C@@H](CC(=O)O)c1ccc(C)cc1)n1cc(C)cc(Cc2ccc3ccccc3c2)c1=O` (stereo partly drawn) [(3S)-3-({2-[5-methyl-3-(2-naphthalenylmethyl)-2-oxo-1(2H)-pyridinyl]hexanoyl}amino)-3-(4-methylphenyl)propanoic acid] was 400 nM.
On to `CCCCC(C(=O)N[C@@H](CC(=O)O)c1ccccc1)n1cc(C)cc(Cc2ccc3ccccc3c2)c1=O` (stereo partly drawn) [(3S)-3-({2-[5-methyl-3-(2-naphthalenylmethyl)-2-oxo-1(2H)-pyridinyl]hexanoyl}amino)-3-phenylpropanoic acid], for which the IC50 was 30 nM.
The value for `CCCCC(C(=O)N[C@@H](CC(=O)O)c1ccccc1)n1cc(C)cc(Cc2ccccc2C)c1=O` (stereo partly drawn) [(3S)-3-({2-[5-methyl-3-[(2-methylphenyl)methyl]-2-oxo-1(2H)-pyridinyl]hexanoyl}amino)-3-phenylpropanoic acid] was 25 nM; that for `CCCCC(C(=O)N[C@@H](CC(=O)O)c1cccc(-c2ccccc2)c1)n1cc(C)cc(Cc2ccccc2)c1=O` (stereo partly drawn) [(3S)-3-[1,1′-biphenyl]-3-yl-3-({2-[5-methyl-2-oxo-3-(phenylmethyl)-1(2H)-pyridinyl]hexanoyl}amino)propanoic acid] was 250 nM.
Turning to `CCCCC(C(=O)N[C@@H](CC(=O)O)c1cccc(N(CC)CC)c1)n1cc(C)cc(Cc2ccccc2)c1=O` (stereo partly drawn) [(3S)-3-[3-(diethylamino)phenyl]-3-({2-[5-methyl-2-oxo-3-{phenylmethyl)-1(2H)-pyridinyl]hexanoyl}amino)propanoic acid], the IC50 was 10 nM.
On to `CCCCC(C(=O)N[C@@H](CC(=O)O)c1cccc(C(F)F)c1)n1cc(C)cc(Cc2ccccc2)c1=O` (stereo partly drawn) [(3S)-3-[3-(difluoromethyl)phenyl]-3-({2-[5-methyl-2-oxo-3-(phenylmethyl)-1(2H)-pyridinyl]hexanoyl}amino)propanoic acid], for which the IC50 was 20 nM.
With `CCCCC(C(=O)N[C@@H](CC(=O)O)c1ccc(C(C)C)cc1)n1cc(C)cc(Cc2ccccc2)c1=O` (stereo partly drawn) [(3S)-3-[4-(1-methylethyl)phenyl]-3-({2-[5-methyl-2-oxo-3-(phenylmethyl)-1(2H)-pyridinyl]hexanoyl}amino)propanoic acid] the figure was 160 nM; with `Cc1cc(C(C(=O)N[C@@H](CC(=O)O)c2cccc(OC(C)C)c2)c2ccccc2)c(=O)n(Cc2ccccc2)c1` (stereo partly drawn) [(3S)-3-{3-[(1-methylethyl)oxy]phenyl}-3-({2-[5-methyl-2-oxo-1-(phenylmethyl)-1,2-dihydro-3-pyridinyl]-2-phenylacetyl}amino)propanoic acid], 10 nM; with `CCCCC(C(=O)N[C@@H](CC(=O)O)c1cccc(OC(C)C)c1)n1cc(C)cc(Cc2cccc3ccccc23)c1=O` (stereo partly drawn) [(3S)-3-{3-[(1-methylethyl)oxy]phenyl}-3-({2-[5-methyl-3-(1-naphthalenylmethyl)-2-oxo-1(2H)-pyridinyl]hexanoyl}amino)propanoic acid], 67 nM.
With `CCCCC(C(=O)N[C@@H](CC(=O)O)c1cccc(OC(C)C)c1)n1cc(C)cc(Cc2ccc3ccccc3c2)c1=O` (stereo partly drawn) [(3S)-3-{3-[(1-methylethyl)oxy]phenyl}-3-({2-[5-methyl-3-(2-naphthalenylmethyl)-2-oxo-1(2H)-pyridinyl]hexanoyl}amino)propanoic acid] the figure was 20 nM; with `CCCCC(C(=O)N[C@@H](CC(=O)O)c1cccc(OC(C)C)c1)n1cc(C)cc(Cc2ccccc2C)c1=O` (stereo partly drawn) [(3S)-3-{3-[(1-methylethyl)oxy]phenyl}-3-({2-[5-methyl-3-[(2-methylphenyl)methyl]-2-oxo-1(2H)-pyridinyl]hexanoyl}amino)propanoic acid], 5 nM; with `CCCCC(C(=O)N[C@@H](CC(=O)O)c1ccc(C)c(OC(C)C)c1)n1cc(C)cc(Cc2ccccc2)c1=O` (stereo partly drawn) [(3S)-3-{4-methyl-3-[(1-methylethyl)oxy]phenyl}-3-({2-[5-methyl-2-oxo-3-(phenylmethyl)-1(2H)-pyridinyl]hexanoyl}amino)propanoic acid], 15 nM.
With `CCCCC(C(=O)N[C@@H](CC(=O)O)c1ccc(OC)c(C)c1C)n1cccc(Cc2ccccc2)c1=O` (stereo partly drawn) [(3S)-3-{[2-(3-benzyl-2-oxopyridin-1(2H)-yl)hexanoyl]amino}-3-(4-methoxy-2,3-dimethylphenyl)propanoic acid] the figure was 300 nM; with `CCCCC(C(=O)N[C@@H](CC(=O)O)c1cc(C)ccc1C)n1cc(C)cc(Cc2ccccc2)c1=O` (stereo partly drawn) [(3S)-3-{[2-(3-benzyl-5-methyl-2-oxopyridin-1(2H)-yl)hexanoyl]amino}-3-(2,5-dimethylphenyl)propanoic acid], 300 nM; with `CCCCC(C(=O)N[C@@H](CC(=O)O)c1ccc(C)c(C)c1)n1cc(C)cc(Cc2ccccc2)c1=O` (stereo partly drawn) [(3S)-3-{[2-(3-benzyl-5-methyl-2-oxopyridin-1(2H)-yl)hexanoyl]amino}-3-(3,4-dimethylphenyl)propanoic acid], 130 nM.
Regarding `CCCCC(C(=O)N[C@@H](CC(=O)O)c1cc(F)cc(F)c1)n1cc(C)cc(Cc2ccccc2)c1=O` (stereo partly drawn) [(3S)-3-{[2-(3-benzyl-5-methyl-2-oxopyridin-1(2H)-yl)hexanoyl]amino}-3-(3,5-difluorophenyl)propanoic acid], the IC50 was 25 nM.
In the case of `CCCCC(C(=O)N[C@@H](CC(=O)O)c1cc(C)cc(C)c1)n1cc(C)cc(Cc2ccccc2)c1=O` (stereo partly drawn) [(3S)-3-{[2-(3-benzyl-5-methyl-2-oxopyridin-1(2H)-yl)hexanoyl]amino}-3-(3,5-dimethylphenyl)propanoic acid], the IC50 was 52 nM.
The value for `CCCCOc1cccc([C@H](CC(=O)O)NC(=O)C(CCCC)n2cc(C)cc(Cc3ccccc3)c2=O)c1` (stereo partly drawn) [(3S)-3-{[2-(3-benzyl-5-methyl-2-oxopyridin-1(2H)-yl)hexanoyl]amino}-3-(3-butoxyphenyl)propanoic acid] was 45 nM; that for `CCCCC(C(=O)N[C@@H](CC(=O)O)c1ccc(OC)c(OCC)c1)n1cc(C)cc(Cc2ccccc2)c1=O` (stereo partly drawn) [(3S)-3-{[2-(3-benzyl-5-methyl-2-oxopyridin-1(2H)-yl)hexanoyl]amino}-3-(3-ethoxy-4-methoxyphenyl)propanoic acid] was 4 nM.
The value for `CCCCC(C(=O)N[C@@H](CC(=O)O)c1cccc(OCC)c1)n1cc(C)cc(Cc2ccccc2)c1=O` (stereo partly drawn) [(3S)-3-{[2-(3-benzyl-5-methyl-2-oxopyridin-1(2H)-yl)hexanoyl]amino}-3-(3-ethoxyphenyl)propanoic acid] was 35 nM; that for `CCCCC(C(=O)N[C@@H](CC(=O)O)c1cccc(OC(C)C)c1)n1cc(C)cc(Cc2ccccc2)c1=O` (stereo partly drawn) [(3S)-3-{[2-(3-benzyl-5-methyl-2-oxopyridin-1(2H)-yl)hexanoyl]amino}-3-(3-isopropoxyphenyl)propanoic acid] was 4 nM; that for `CCCCC(C(=O)N[C@@H](CC(=O)O)c1cccc(OCCC)c1)n1cc(C)cc(Cc2ccccc2)c1=O` (stereo partly drawn) [(3S)-3-{[2-(3-benzyl-5-methyl-2-oxopyridin-1(2H)-yl)hexanoyl]amino}-3-(3-propoxyphenyl)propanoic acid] was 10 nM.
In the case of `CCCCC(C(=O)N[C@@H](CC(=O)O)c1ccc(Cl)c(OC(C)C)c1)n1cc(C)cc(Cc2ccccc2)c1=O` (stereo partly drawn) [(3S)-3-{[2-(3-benzyl-5-methyl-2-oxopyridin-1(2H)-yl)hexanoyl]amino}-3-(4-chloro-3-isopropoxyphenyl)propanoic acid], the IC50 is 25 nM.
Consider `CCCCC(C(=O)N[C@@H](CC(=O)O)c1cc(C)c(OC)cc1C)n1cc(C)cc(Cc2ccccc2)c1=O` (stereo partly drawn) [(3S)-3-{[2-(3-benzyl-5-methyl-2-oxopyridin-1(2H)-yl)hexanoyl]amino}-3-(4-methoxy-2,5-dimethylphenyl)propanoic acid], for which the IC50 was 283 nM.
For `CCCCC(C(=O)N[C@@H](CC(=O)O)c1cc(C)c(OC)c(C)c1)n1cc(C)cc(Cc2ccccc2)c1=O` (stereo partly drawn) [(3S)-3-{[2-(3-benzyl-5-methyl-2-oxopyridin-1(2H)-yl)hexanoyl]amino}-3-(4-methoxy-3,5-dimethylphenyl)propanoic acid], the IC50 was 140 nM.
With `CCCCC(C(=O)N[C@@H](CC(=O)O)c1ccc(OC)c(C)c1)n1cc(C)cc(Cc2ccccc2)c1=O` (stereo partly drawn) [(3S)-3-{[2-(3-benzyl-5-methyl-2-oxopyridin-1(2H)-yl)hexanoyl]amino}-3-(4-methoxy-3-methylphenyl)propanoic acid] the figure was 9 nM.
The value for `CCCCC(C(=O)N[C@@H](CC(=O)O)c1ccc(-c2ccc(OC)cc2)cc1)n1cc(C)cc(Cc2ccccc2)c1=O` (stereo partly drawn) [(3S)-3-{[2-(3-benzyl-5-methyl-2-oxopyridin-1(2H)-yl)hexanoyl]amino}-3-(4′-methoxy-1,1′-biphenyl-4-yl)propanoic acid] was 300 nM.

One may read the IC50 as the concentration needed to halve the response being measured.
